Consider two compounds from US20220402980A1, “CHROMOGRANIN A-DERIVED PEPTIDES AND USES THEREOF” (OSPEDALE SAN RAFFAELE S.R.L., priority 2019, published 2022).

Where a SMILES comes first, the peptide text is derived from it.

What is called Ki is a dissociation constant, usually derived from enzyme kinetics or from competition with a known ligand.

In series [1] the target is T1, αvβ6 (Homo sapiens, UniProt P06756+P18564).
T1 construct: recombinant human αvβ6 extracellular domain (R&D Systems); purchased R&D Systems (Minneapolis, Minn.)
Nature of the series: Competitive integrin binding assay (isoDGR/STV-HRP probe), αvβ6-coated plates. Conditions: Table 3a and text; ± standard error of the mean; read-out: Ki αvβ6. As for the experimental part: (§1) Peptide binding was measured by a competitive binding assay using as integrin probe a complex made by a N-terminal acetylated isoDGR peptide biotinylated at the E-amino group of the lysine, acetyl-Ciso[…]-bio (SEQ ID No. 29), and a streptavidin-peroxidase conjugate (called isoDGR/STV-HRP)[43].
(§2) Each mixture was then added to integrin-coated wells and left to incubate for 2 h at room temperature. After washing with 25 mM Tris-HCl, pH 7.4, containing 150 mM sodium chloride, 1 mM magnesium chloride, 1 mM manganese chloride, each well was filled with a chromogenic solution (o-phenylenediamine dihydrochloride) and left to incubate for 30 min at room temperature. The chromogenic reaction was stopped by adding 1 N sulfuric acid. The absorbance at 490 nm was then measured using a microtiterplate reader. Ki values were calculated by non-linear regression analysis of competitive binding data using the “One site - Fit Ki” equation of the GraphPad Prism Software using the Kd values of the probe indicated above.

Series [2] concerns the target αvβ8 (Homo sapiens, UniProt P06756+P26012). The experiment in a line: Competitive integrin binding assay (isoDGR/STV-HRP probe), αvβ8-coated plates. Conditions: Table 3a and text; ± standard error of the mean; read-out: Ki αvβ8. As for the experimental part:
as §1, §2

The target in series [3] is T2, αvβ5 (Homo sapiens, UniProt P06756+P18084).
T2 construct: purchased Immunological Sciences (Rome, Italy)
Nature of the series: Competitive integrin binding assay (isoDGR/STV-HRP probe), αvβ5-coated plates. The conditions noted are these: Table 3a; ± standard error of the mean. The method, then: as §1, §2

In series [4] the target is T3, αvβ6 on human bladder cancer 5637 cells (Homo sapiens, UniProt P06756+P18564).
T3 construct: cell-surface expressed αvβ6 on human bladder cancer 5637 cells; host or cells: human bladder cancer 5637 cells
Nature of the series: Effect of peptides on binding of anti-αvβ6 mAb 10D5 to 5637 cells (FACS). The format is cell-based. The conditions noted are these: competition with mAb 10D5.

In series [5] the target is T4, αvβ6 on human keratinocytes (HaCat) (Homo sapiens, UniProt P06756+P18564).
T4 construct: endogenous in cells; host or cells: human skin keratinocytes HaCaT
The experiment in a line: Effect of peptides on binding of anti-αvβ6 mAb 10D5 to HaCaT cells (FACS). It is filed as cell-based. The conditions noted are these: competition with mAb 10D5.

Series [6] has as its system human bladder carcinoma 5637 cells. Nature of the series: 5637 cell viability (PrestoBlue). Conditions: 48 h. It is filed as cell-based. The method, then:
FIG. 12. Effect of peptides 4 and 5 on human bladder carcinoma 5637 cell viability. 5637 cells were seeded in a 96-well microtiterplate (20,000 cell/well) and cultured for 16 h at 37° C., 5% CO2. The day after the indicated doses of peptide 4 and 5 were added to the cells and left to incubate for additionally 48 h at 37° C., 5% CO2. Cell viability was assessed using the PrestoBlue* cell viability reagent (ThermoFisher) according to the manufacturer's instructions. Viability of the treated cells was normalized to that of untreated cells and is reported as a percentage (mean±SE of triplicate wells).

The nature of series [7]: Peptide stability in mouse liver microsomal preparations (RP-HPLC). It is filed as in vitro ADME. Conditions: C57BL/6, mouse, liver microsomes; 37° C.; read-out: t1/2 in mouse liver microsomes (converted). As for the experimental part: FIG. 14. Stability of peptides 4 and 5 in murine liver microsomes as determined by RP-HPLC. a) RP-HPLC of 4 and 5 after incubation at 37° C. in murine liver microsomes. Peak 1 corresponds to 4 and 5. The peptides were added to murine liver microsomes (454 - μg/ml, final concentration) and incubated for the indicated time, diluted with an equal volume of 90% acetonitrile containing 0.1% TFA and analyzed onto a LiChrospher C18 column (16 ag). No peptide indicates liver microsome aliquot without the peptide. b) Quantification of Peak 1 area (left panel) and height (right panel) of the indicated peptides. The corresponding half-life is also shown.
The stability of compound 4 and 5 in mouse liver microsomal preparations was assessed by HPLC analysis. To this aim microsomes were prepared as follows: 11 g of mouse liver tissue (C57BL/6 mice) was homogenized in cold PBS supplemented with 0.25 M sucrose (3 ml/g of tissue) using a Potter-Elvehjem homogenizer (10 strokes), followed by additional homogenization using a rotor-stator homogenizer (40 sec). The homogenate was filtered through 70 pm cell-strainers, centrifuged three times to remove insoluble materials (500 x g, 5 min; 3000 x g, 30 min; 110000 x g, 90 min, 4° C.). […] Protein concentration was measured by measuring the absorbance at 280 nm with a NanoDrop spectrophotometer (Thermo Scientific). […]
A general note: Microsomes from liver hold many membrane-bound enzymes, among them those of drug oxidation.

Series [8] addresses T5, α5β1 (Homo sapiens, UniProt P05556+P08648).
T5 construct: purchased Immunological Sciences (Rome, Italy)
The experiment in a line: Competitive integrin binding assay (isoDGR/STV-HRP probe), α5β1-coated plates. The method, then: as §1, §2

For the compound `CC[C@H](C)[C@H](NC(=O)[C@H](CCCNC(=N)N)NC(=O)[C@H](CC(C)C)NC(=O)[C@H](CC(=O)O)NC(=O)CNC(=O)[C@H](CCCNC(=N)N)NC(=O)[C@H](CC(C)C)NC(=O)[C@@H](NC(=O)[C@H](CCC(=O)O)NC(=O)[C@@H](N)Cc1ccccc1)[C@@H](C)O)C(=O)N[C@@H](CC(C)C)C(=O)N[C@@H](CO)C(=O)N[C@H](C(=O)N[C@@H](CC(C)C)C(=O)N[C@@H](CCCNC(=N)N)C(=O)N[C@@H](Cc1c[nH]cn1)C(=O)N[C@@H](CCC(N)=O)C(=O)N[C@@H](CC(N)=O)C(=O)N[C@@H](CC(C)C)C(=O)N[C@@H](CC(C)C)C(=O)N[C@@H](CCCCN)C(=O)N[C@@H](CCC(=O)O)C(=O)N[C@@H](CC(C)C)C(=O)N[C@@H](CCC(N)=O)C(=O)N[C@@H](CC(=O)O)C(=O)O)[C@@H](C)CC` [peptide 4] (H-FETLRGDLRILSILRHQNLLKELQD-OH; N-terminus and C-terminus assumed), the inhibition constant (Ki) in series [1] is 0.0016 ± 0.0003 µM; in series [2], 0.0085 ± 0.0037 µM; in series [3], 2.41 ± 1.59 µM. For the same compound, the “binding to cell-surface expressed αvβ6” value in series [4] and in series [5] was “bound cell-surface expressed αvβ6” in each case. For the same compound, in series [6], the cytotoxicity in vitro entry is “not cytotoxic”. In series [7], the half-life at 454 μg/ml was 1.3 h.

In turn, `CC(C)C[C@H](NC(=O)[C@H](CC(=O)O)NC(=O)CNC(=O)[C@H](CCCNC(=N)N)NC(=O)[C@H](CC(C)C)NC(=O)[C@H](CC(N)=O)NC(=O)[C@@H]1CCCN1C(=O)[C@@H](NC(=O)[C@H](C)NC(=O)[C@@H](N)CC(N)=O)C(C)C)C(=O)N[C@@H](CCC(N)=O)C(=O)N[C@H](C(=O)N[C@@H](CC(C)C)C(=O)N[C@@H](C)C(=O)N[C@@H](CCC(N)=O)C(=O)N[C@@H](CCCCN)C(=O)N[C@H](C(=O)N[C@@H](C)C(=O)N[C@@H](CCCNC(=N)N)C(=O)N[C@H](C(=O)O)[C@@H](C)O)C(C)C)C(C)C` [peptide 6] yielded a Ki in series [8] of 2.317 ± 0.01 µM.
